# According to PubChem BioAssay AID1963981 (Molecular Pharmacology Branch, DTP, NCI, 2024):
# pIC50: −log10 of the molar value.
# Test system: 354836-022-R-J1-PDC multicell spheroid viability
# Test: Anticancer human tumor 354836-022-R-J1-PDC patient-derived head and neck squamous cell carcinoma cell line growth inhibition [PI3K]
# Settings: for pIC50: curve of first compound; for viability, T/C: stronger effect = lower value
# Method in brief: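 Tumor cells were combined with HUVEC and MSCs into spheroids, then dosed with PI3K-inhibitor combinations over half-log ranges capped near clinical Cmax or 10 microM.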
# [1] = second compound 0.00316 µM, first compound 0.0316 µM
# [2] = second compound 0.00316 µM, first compound 0.1 µM
# [3] = second compound 0.00316 µM, first compound 0.316 µM
# [4] = second compound 0.00316 µM, first compound 1 µM
# [5] = second compound 0.00316 µM, first compound 3.16 µM
# [6] = second compound 0.00316 µM, first compound 10 µM
# [7] = second compound 0.01 µM, first compound 0.0316 µM
# [8] = second compound 0.01 µM, first compound 0.1 µM
# [9] = second compound 0.01 µM, first compound 0.316 µM
# [10] = second compound 0.01 µM, first compound 1 µM
# [11] = second compound 0.01 µM, first compound 3.16 µM
# [12] = second compound 0.01 µM, first compound 10 µM
# [13] = second compound 0.0316 µM, first compound 0.0316 µM
# [14] = second compound 0.0316 µM, first compound 0.1 µM
# [15] = second compound 0.0316 µM, first compound 0.316 µM
# [16] = second compound 0.0316 µM, first compound 1 µM
# [17] = second compound 0.0316 µM, first compound 3.16 µM
# [18] = second compound 0.0316 µM, first compound 10 µM
# [19] = second compound 0.1 µM, first compound 0.0316 µM
# [20] = second compound 0.1 µM, first compound 0.1 µM
# [21] = second compound 0.1 µM, first compound 0.316 µM
# [22] = second compound 0.1 µM, first compound 1 µM
# [23] = second compound 0.1 µM, first compound 3.16 µM
# [24] = second compound 0.1 µM, first compound 10 µM
# [25] = second compound 0.316 µM, first compound 0.0316 µM
# [26] = second compound 0.316 µM, first compound 0.1 µM
# [27] = second compound 0.316 µM, first compound 0.316 µM
# [28] = second compound 0.316 µM, first compound 1 µM
# [29] = second compound 0.316 µM, first compound 3.16 µM
# [30] = second compound 0.316 µM, first compound 10 µM
# [31] = second compound 1 µM, first compound 0.0316 µM
# [32] = second compound 1 µM, first compound 0.1 µM
# [33] = second compound 1 µM, first compound 0.316 µM
# [34] = second compound 1 µM, first compound 1 µM
# [35] = second compound 1 µM, first compound 3.16 µM
# [36] = second compound 1 µM, first compound 10 µM
# 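Also: spheroids exposed to agents for seven days before the viability read.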
smiles,measurement,setting,value
CC(C)NCC(C(=O)N1CCN(c2ncnc3c2C(C)CC3O)CC1)c1ccc(Cl)cc1 (stereo not drawn) + COc1c(OCCCN2CCOCC2)ccc2c3n(c(=NC(=O)c4cnc(N)nc4)nc12)CCN3,pIC50,second compound 0.00316 µM,6.52
same,pIC50,second compound 0.01 µM,6.64
same,pIC50,second compound 0.0316 µM,6.92
same,pIC50,second compound 0.1 µM,> 7.50
same,pIC50,second compound 0.316 µM,> 7.50
same,pIC50,second compound 1 µM,> 7.50
same,"viability, T/C",[1],90.8%
same,"viability, T/C",[2],68.1%
same,"viability, T/C",[3],52.3%
same,"viability, T/C",[4],28.5%
same,"viability, T/C",[5],9.34%
same,"viability, T/C",[6],2.4%
same,"viability, T/C",[7],87.6%
same,"viability, T/C",[8],66.5%
same,"viability, T/C",[9],42.9%
same,"viability, T/C",[10],24.8%
same,"viability, T/C",[11],9.85%
same,"viability, T/C",[12],2.96%
same,"viability, T/C",[13],68.8%
same,"viability, T/C",[14],52.7%
same,"viability, T/C",[15],34.5%
same,"viability, T/C",[16],19.4%
same,"viability, T/C",[17],7.83%
same,"viability, T/C",[18],2.13%
same,"viability, T/C",[19],43%
same,"viability, T/C",[20],39.6%
same,"viability, T/C",[21],26.3%
same,"viability, T/C",[22],13.3%
same,"viability, T/C",[23],3.65%
same,"viability, T/C",[24],1.29%
same,"viability, T/C",[25],11.6%
same,"viability, T/C",[26],11.2%
same,"viability, T/C",[27],5.73%
same,"viability, T/C",[28],3.46%
same,"viability, T/C",[29],1.76%
same,"viability, T/C",[30],0.91%
same,"viability, T/C",[31],1.35%
same,"viability, T/C",[32],1.54%
same,"viability, T/C",[33],1.33%
same,"viability, T/C",[34],1.12%
same,"viability, T/C",[35],1.14%
same,"viability, T/C",[36],0.88%
CCN1CCN(Cc2ccc(Nc3ncc(F)c(-c4cc(F)c5nc(C)n(C(C)C)c5c4)n3)nc2)CC1 + COc1c(OCCCN2CCOCC2)ccc2c3n(c(=NC(=O)c4cnc(N)nc4)nc12)CCN3,pIC50,second compound 0.00316 µM,6.18
same,pIC50,second compound 0.01 µM,6.19
same,pIC50,second compound 0.0316 µM,6.47
same,pIC50,second compound 0.1 µM,> 8.50
same,pIC50,second compound 0.316 µM,> 8.50
same,pIC50,second compound 1 µM,> 8.50
same,"viability, T/C","second compound 0.00316 µM, first compound 0.00316 µM",97.2%
same,"viability, T/C","second compound 0.00316 µM, first compound 0.01 µM",86.5%
same,"viability, T/C",[1],98.3%
same,"viability, T/C",[2],99.3%
same,"viability, T/C",[3],71.5%
same,"viability, T/C",[4],37.6%
same,"viability, T/C","second compound 0.01 µM, first compound 0.00316 µM",98%
same,"viability, T/C","second compound 0.01 µM, first compound 0.01 µM",101%
same,"viability, T/C",[7],96%
same,"viability, T/C",[8],81.1%
same,"viability, T/C",[9],83.5%
same,"viability, T/C",[10],31.7%
same,"viability, T/C","second compound 0.0316 µM, first compound 0.00316 µM",78.5%
same,"viability, T/C","second compound 0.0316 µM, first compound 0.01 µM",74.4%
same,"viability, T/C",[13],72.6%
same,"viability, T/C",[14],65.2%
same,"viability, T/C",[15],53.5%
same,"viability, T/C",[16],20.9%
same,"viability, T/C","second compound 0.1 µM, first compound 0.00316 µM",46.6%
same,"viability, T/C","second compound 0.1 µM, first compound 0.01 µM",41.8%
same,"viability, T/C",[19],46.5%
same,"viability, T/C",[20],36.6%
same,"viability, T/C",[21],30.4%
same,"viability, T/C",[22],6.41%
same,"viability, T/C","second compound 0.316 µM, first compound 0.00316 µM",11.8%
same,"viability, T/C","second compound 0.316 µM, first compound 0.01 µM",10.4%
same,"viability, T/C",[25],12.9%
same,"viability, T/C",[26],8.98%
same,"viability, T/C",[27],5.99%
same,"viability, T/C",[28],2.69%
same,"viability, T/C","second compound 1 µM, first compound 0.00316 µM",1.43%
same,"viability, T/C","second compound 1 µM, first compound 0.01 µM",1.38%
same,"viability, T/C",[31],1.41%
same,"viability, T/C",[32],1.78%
same,"viability, T/C",[33],1.38%
same,"viability, T/C",[34],1.22%
Cn1ncc(Cl)c1-c1cc(C(=O)NC(CN)Cc2cccc(F)c2)sc1Cl (stereo not drawn) + COc1c(OCCCN2CCOCC2)ccc2c3n(c(=NC(=O)c4cnc(N)nc4)nc12)CCN3,pIC50,second compound 0.00316 µM,6.83
same,pIC50,second compound 0.01 µM,6.66
same,pIC50,second compound 0.0316 µM,6.94
same,pIC50,second compound 0.1 µM,> 7.50
same,pIC50,second compound 0.316 µM,> 7.50
same,pIC50,second compound 1 µM,> 7.50
same,"viability, T/C",[1],78%
same,"viability, T/C",[2],56%
same,"viability, T/C",[3],37.3%
same,"viability, T/C",[4],23.2%
same,"viability, T/C",[5],8.77%
same,"viability, T/C",[6],1.45%
same,"viability, T/C",[7],73%
same,"viability, T/C",[8],74.2%
same,"viability, T/C",[9],37.2%
same,"viability, T/C",[10],19%
same,"viability, T/C",[11],8.38%
same,"viability, T/C",[12],1.92%
same,"viability, T/C",[13],66.7%
same,"viability, T/C",[14],52.8%
same,"viability, T/C",[15],33.1%
same,"viability, T/C",[16],16.1%
same,"viability, T/C",[17],8.7%
same,"viability, T/C",[18],2.85%
same,"viability, T/C",[19],45.2%
same,"viability, T/C",[20],33.6%
same,"viability, T/C",[21],20.1%
same,"viability, T/C",[22],8.6%
same,"viability, T/C",[23],2.88%
same,"viability, T/C",[24],0.98%
same,"viability, T/C",[25],14.4%
same,"viability, T/C",[26],10.3%
same,"viability, T/C",[27],5.2%
same,"viability, T/C",[28],2.69%
same,"viability, T/C",[29],3.48%
same,"viability, T/C",[30],1.06%
same,"viability, T/C",[31],1.56%
same,"viability, T/C",[32],1.83%
same,"viability, T/C",[33],1.63%
same,"viability, T/C",[34],2.2%
same,"viability, T/C",[35],1.8%
same,"viability, T/C",[36],1.4%
Cn1nccc1Nc1nccc(-c2ccn(C(CO)c3ccc(Cl)c(F)c3)c(=O)c2)n1 (stereo not drawn) + COc1c(OCCCN2CCOCC2)ccc2c3n(c(=NC(=O)c4cnc(N)nc4)nc12)CCN3,pIC50,second compound 0.00316 µM,< 5.00
same,pIC50,second compound 0.01 µM,< 5.00
same,pIC50,second compound 0.0316 µM,< 5.00
same,pIC50,second compound 0.1 µM,7.13
same,pIC50,second compound 0.316 µM,> 7.50
same,pIC50,second compound 1 µM,> 7.50
same,"viability, T/C",[1],97%
same,"viability, T/C",[2],98.1%
same,"viability, T/C",[3],94.2%
same,"viability, T/C",[4],89.3%
same,"viability, T/C",[5],92.1%
same,"viability, T/C",[6],82.7%
same,"viability, T/C",[7],88.5%
same,"viability, T/C",[8],99%
same,"viability, T/C",[9],88%
same,"viability, T/C",[10],94%
same,"viability, T/C",[11],91.9%
same,"viability, T/C",[12],97.6%
same,"viability, T/C",[13],83.4%
same,"viability, T/C",[14],69.7%
same,"viability, T/C",[15],76%
same,"viability, T/C",[16],84.7%
same,"viability, T/C",[17],87.2%
same,"viability, T/C",[18],64.2%
same,"viability, T/C",[19],49.1%
same,"viability, T/C",[20],49.2%
same,"viability, T/C",[21],46.9%
same,"viability, T/C",[22],49.6%
same,"viability, T/C",[23],44.8%
same,"viability, T/C",[24],32.2%
same,"viability, T/C",[25],11.8%
same,"viability, T/C",[26],11.1%
same,"viability, T/C",[27],11.1%
same,"viability, T/C",[28],11.4%
same,"viability, T/C",[29],6.95%
same,"viability, T/C",[30],2.26%
same,"viability, T/C",[31],1.52%
same,"viability, T/C",[32],1.16%
same,"viability, T/C",[33],1.02%
same,"viability, T/C",[34],1.12%
same,"viability, T/C",[35],1.77%
same,"viability, T/C",[36],0.33%
